pIC50: −log10 of the molar value. Values belong to the molecule of their own block, whether it stands above or below them.
Tested on: 596521-263-R-J1-PDC complex spheroid growth
Assay: Anticancer human tumor 596521-263-R-J1-PDC patient-derived soft tissue sarcoma cell line growth inhibition [Asc]
Settings: for pIC50: curve of first compound; for viability, T/C: stronger effect = lower value
Procedure, shortened: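 Tumor cells were grown as complex spheroids with human endothelial cells (HUVEC) and human mesenchymal stem cells as stroma. Agents were tested alone and in combination, in half-log steps down from the clinical Cmax, or from 10 microM where Cmax was unknown.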

[1] = second compound 0.00316 µM, first compound 0.0316 µM
[2] = second compound 0.00316 µM, first compound 0.1 µM
[3] = second compound 0.01 µM, first compound 0.0316 µM
[4] = second compound 0.01 µM, first compound 0.1 µM
[5] = second compound 0.0316 µM, first compound 0.0316 µM
[6] = second compound 0.0316 µM, first compound 0.1 µM
[7] = second compound 0.1 µM, first compound 0.0316 µM
[8] = second compound 0.1 µM, first compound 0.1 µM
[9] = second compound 0.316 µM, first compound 0.0316 µM
[10] = second compound 0.316 µM, first compound 0.1 µM
[11] = second compound 1 µM, first compound 0.0316 µM
[12] = second compound 1 µM, first compound 0.1 µM
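Note: spheroids exposed to compounds for 7 days.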

pIC50 (second compound 0.00949 µM): < 5.52
pIC50 (second compound 0.03 µM): < 5.52
pIC50 (second compound 0.0949 µM): < 5.52
pIC50 (second compound 0.3 µM): < 5.52
pIC50 (second compound 0.949 µM): < 5.52
pIC50 (second compound 3 µM): < 5.52
Structure (SMILES): Cc1nc(N2CCC3(CC2)COC(C)C3N)c(CO)nc1Sc1ccnc(N)c1Cl (stereo unspecified) + CCN1C(C(=O)NC23CCC(C(=O)O)(CC2)CC3)C(c2cccc(Cl)c2F)C2(C(=O)Nc3cc(Cl)ccc32)C12CCCCC2
viability, T/C (second compound 0.00949 µM, first compound 0.00949 µM): 97.8%
viability, T/C (second compound 0.00949 µM, first compound 0.03 µM): 92.9%
viability, T/C (second compound 0.00949 µM, first compound 0.0949 µM): 87.7%
viability, T/C (second compound 0.00949 µM, first compound 0.3 µM): 84.5%
viability, T/C (second compound 0.00949 µM, first compound 0.949 µM): 78.6%
viability, T/C (second compound 0.00949 µM, first compound 3 µM): 67.8%
viability, T/C (second compound 0.03 µM, first compound 0.00949 µM): 92.5%
viability, T/C (second compound 0.03 µM, first compound 0.03 µM): 99.1%
viability, T/C (second compound 0.03 µM, first compound 0.0949 µM): 104%
viability, T/C (second compound 0.03 µM, first compound 0.3 µM): 88.3%
viability, T/C (second compound 0.03 µM, first compound 0.949 µM): 81.2%
viability, T/C (second compound 0.03 µM, first compound 3 µM): 66.2%
viability, T/C (second compound 0.0949 µM, first compound 0.00949 µM): 101%
viability, T/C (second compound 0.0949 µM, first compound 0.03 µM): 92.9%
viability, T/C (second compound 0.0949 µM, first compound 0.0949 µM): 87.4%
viability, T/C (second compound 0.0949 µM, first compound 0.3 µM): 91.3%
viability, T/C (second compound 0.0949 µM, first compound 0.949 µM): 80%
viability, T/C (second compound 0.0949 µM, first compound 3 µM): 69.3%
viability, T/C (second compound 0.3 µM, first compound 0.00949 µM): 101%
viability, T/C (second compound 0.3 µM, first compound 0.03 µM): 95%
viability, T/C (second compound 0.3 µM, first compound 0.0949 µM): 96.5%
viability, T/C (second compound 0.3 µM, first compound 0.3 µM): 91.5%
viability, T/C (second compound 0.3 µM, first compound 0.949 µM): 83.8%
viability, T/C (second compound 0.3 µM, first compound 3 µM): 69.3%
viability, T/C (second compound 0.949 µM, first compound 0.00949 µM): 90.8%
viability, T/C (second compound 0.949 µM, first compound 0.03 µM): 101%
viability, T/C (second compound 0.949 µM, first compound 0.0949 µM): 100%
viability, T/C (second compound 0.949 µM, first compound 0.3 µM): 91.5%
viability, T/C (second compound 0.949 µM, first compound 0.949 µM): 90.1%
viability, T/C (second compound 0.949 µM, first compound 3 µM): 73.8%
viability, T/C (second compound 3 µM, first compound 0.00949 µM): 82.6%
viability, T/C (second compound 3 µM, first compound 0.03 µM): 81.6%
viability, T/C (second compound 3 µM, first compound 0.0949 µM): 82.1%
viability, T/C (second compound 3 µM, first compound 0.3 µM): 86.1%
viability, T/C (second compound 3 µM, first compound 0.949 µM): 65.8%
viability, T/C (second compound 3 µM, first compound 3 µM): 58.2%

pIC50 (second compound 0.00316 µM): > 9.50
pIC50 (second compound 0.01 µM): < 7.00
pIC50 (second compound 0.0316 µM): < 7.00
pIC50 (second compound 0.1 µM): < 7.00
pIC50 (second compound 0.316 µM): < 7.00
pIC50 (second compound 1 µM): < 7.00
Structure (SMILES): Cn1ncnc1[C@H]1c2n[nH]c(=O)c3cc(F)cc(c23)N[C@@H]1c1ccc(F)cc1 + CNC(C)C(=O)NC1CN(S(=O)(=O)c2cccc(S(=O)(=O)N3CCC4CCC(C(=O)NC(c5ccccc5)c5ccccc5)N4C(=O)C(NC(=O)C(C)NC)C3)c2)CCC2CCC(C(=O)NC(c3ccccc3)c3ccccc3)N2C1=O
viability, T/C (second compound 0.00316 µM, first compound 0.000316 µM): 16.1%
viability, T/C (second compound 0.00316 µM, first compound 0.001 µM): 16%
viability, T/C (second compound 0.00316 µM, first compound 0.00316 µM): 15.3%
viability, T/C (second compound 0.00316 µM, first compound 0.01 µM): 16.5%
viability, T/C [1]: 15.2%
viability, T/C [2]: 15.6%
viability, T/C (second compound 0.01 µM, first compound 0.000316 µM): 76%
viability, T/C (second compound 0.01 µM, first compound 0.001 µM): 62.1%
viability, T/C (second compound 0.01 µM, first compound 0.00316 µM): 63.8%
viability, T/C (second compound 0.01 µM, first compound 0.01 µM): 64.2%
viability, T/C [3]: 67.4%
viability, T/C [4]: 57.3%
viability, T/C (second compound 0.0316 µM, first compound 0.000316 µM): 92.6%
viability, T/C (second compound 0.0316 µM, first compound 0.001 µM): 75.9%
viability, T/C (second compound 0.0316 µM, first compound 0.00316 µM): 73%
viability, T/C (second compound 0.0316 µM, first compound 0.01 µM): 76.9%
viability, T/C [5]: 64.1%
viability, T/C [6]: 64.7%
viability, T/C (second compound 0.1 µM, first compound 0.000316 µM): 81.9%
viability, T/C (second compound 0.1 µM, first compound 0.001 µM): 81%
viability, T/C (second compound 0.1 µM, first compound 0.00316 µM): 79.9%
viability, T/C (second compound 0.1 µM, first compound 0.01 µM): 71.1%
viability, T/C [7]: 62.2%
viability, T/C [8]: 60.3%
viability, T/C (second compound 0.316 µM, first compound 0.000316 µM): 83.3%
viability, T/C (second compound 0.316 µM, first compound 0.001 µM): 74.7%
viability, T/C (second compound 0.316 µM, first compound 0.00316 µM): 79.3%
viability, T/C (second compound 0.316 µM, first compound 0.01 µM): 64%
viability, T/C [9]: 65.1%
viability, T/C [10]: 60.6%
viability, T/C (second compound 1 µM, first compound 0.000316 µM): 73.2%
viability, T/C (second compound 1 µM, first compound 0.001 µM): 76.8%
viability, T/C (second compound 1 µM, first compound 0.00316 µM): 71.5%
viability, T/C (second compound 1 µM, first compound 0.01 µM): 77.3%
viability, T/C [11]: 64.1%
viability, T/C [12]: 58.3%

pIC50 (second compound 0.00316 µM): > 7.50
pIC50 (second compound 0.01 µM): 5.68
pIC50 (second compound 0.0316 µM): 5.32
pIC50 (second compound 0.1 µM): 5.44
pIC50 (second compound 0.316 µM): 5.54
pIC50 (second compound 1 µM): 5.65
Structure (SMILES): O=C(c1cc(Cc2n[nH]c(=O)c3ccccc23)ccc1F)N1CCN(C(=O)C2CC2)CC1 + CNC(C)C(=O)NC1CN(S(=O)(=O)c2cccc(S(=O)(=O)N3CCC4CCC(C(=O)NC(c5ccccc5)c5ccccc5)N4C(=O)C(NC(=O)C(C)NC)C3)c2)CCC2CCC(C(=O)NC(c3ccccc3)c3ccccc3)N2C1=O
viability, T/C [1]: 16.1%
viability, T/C [2]: 14.4%
viability, T/C (second compound 0.00316 µM, first compound 0.316 µM): 17.1%
viability, T/C (second compound 0.00316 µM, first compound 1 µM): 14.8%
viability, T/C (second compound 0.00316 µM, first compound 3.16 µM): 13.7%
viability, T/C (second compound 0.00316 µM, first compound 10 µM): 12.7%
viability, T/C [3]: 73.9%
viability, T/C [4]: 61.2%
viability, T/C (second compound 0.01 µM, first compound 0.316 µM): 60.7%
viability, T/C (second compound 0.01 µM, first compound 1 µM): 64.3%
viability, T/C (second compound 0.01 µM, first compound 3.16 µM): 36.7%
viability, T/C (second compound 0.01 µM, first compound 10 µM): 45.1%
viability, T/C [5]: 90.9%
viability, T/C [6]: 84.4%
viability, T/C (second compound 0.0316 µM, first compound 0.316 µM): 87.2%
viability, T/C (second compound 0.0316 µM, first compound 1 µM): 71.8%
viability, T/C (second compound 0.0316 µM, first compound 3.16 µM): 54.6%
viability, T/C (second compound 0.0316 µM, first compound 10 µM): 42.4%
viability, T/C [7]: 79.1%
viability, T/C [8]: 73.4%
viability, T/C (second compound 0.1 µM, first compound 0.316 µM): 75.5%
viability, T/C (second compound 0.1 µM, first compound 1 µM): 78.1%
viability, T/C (second compound 0.1 µM, first compound 3.16 µM): 51.7%
viability, T/C (second compound 0.1 µM, first compound 10 µM): 37.7%
viability, T/C [9]: 77.4%
viability, T/C [10]: 79.2%
viability, T/C (second compound 0.316 µM, first compound 0.316 µM): 80.5%
viability, T/C (second compound 0.316 µM, first compound 1 µM): 72.4%
viability, T/C (second compound 0.316 µM, first compound 3.16 µM): 48.4%
viability, T/C (second compound 0.316 µM, first compound 10 µM): 36%
viability, T/C [11]: 68.7%
viability, T/C [12]: 71.5%
viability, T/C (second compound 1 µM, first compound 0.316 µM): 61.7%
viability, T/C (second compound 1 µM, first compound 1 µM): 69.1%
viability, T/C (second compound 1 µM, first compound 3.16 µM): 42.3%
viability, T/C (second compound 1 µM, first compound 10 µM): 31.3%

From PubChem BioAssay AID1963449 (Molecular Pharmacology Branch, DTP, NCI, 2024)
